Measurements from ChEMBL document CHEMBL1201862, “PubChem BioAssay data set” (2004).
The source made the active and inactive calls.

Key:
Beta-lactamase [1] = molecular target: Beta-lactamase (Pseudomonas aeruginosa, UniProt Q79MP6);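 also: biochemical dose-response test of metallo-beta-lactamase enzyme inhibition, read out by epi-absorbance; purified recombinant IMP-1 metallo-beta-lactamase with nitrocefin as substrate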
Beta-lactamase [2] = molecular target: Beta-lactamase (Salmonella choleraesuis (strain SC-B67), UniProt Q5J463)
Chain of Beta-lactamase (Salmonella choleraesuis (strain SC-B67), UniProt Q5J463) (Q5J463 whole entry): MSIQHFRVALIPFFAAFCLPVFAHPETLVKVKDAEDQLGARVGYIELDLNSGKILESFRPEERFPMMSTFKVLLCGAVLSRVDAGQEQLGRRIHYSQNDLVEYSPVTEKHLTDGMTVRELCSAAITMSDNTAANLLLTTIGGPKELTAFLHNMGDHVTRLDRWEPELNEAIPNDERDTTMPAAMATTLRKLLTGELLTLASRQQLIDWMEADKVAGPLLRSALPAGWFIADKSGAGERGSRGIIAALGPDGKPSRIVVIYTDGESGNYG

[3] = molecular target: Metabotropic glutamate receptor 5 (Rattus norvegicus, UniProt P31424); assay: Identification of a glycine sulfonamide based non-MPEP site positive allosteric potentiator (PAM) of mGlu5 (calcium_assay).; assay type: functional
Chain of Metabotropic glutamate receptor 5 (P31424 whole entry): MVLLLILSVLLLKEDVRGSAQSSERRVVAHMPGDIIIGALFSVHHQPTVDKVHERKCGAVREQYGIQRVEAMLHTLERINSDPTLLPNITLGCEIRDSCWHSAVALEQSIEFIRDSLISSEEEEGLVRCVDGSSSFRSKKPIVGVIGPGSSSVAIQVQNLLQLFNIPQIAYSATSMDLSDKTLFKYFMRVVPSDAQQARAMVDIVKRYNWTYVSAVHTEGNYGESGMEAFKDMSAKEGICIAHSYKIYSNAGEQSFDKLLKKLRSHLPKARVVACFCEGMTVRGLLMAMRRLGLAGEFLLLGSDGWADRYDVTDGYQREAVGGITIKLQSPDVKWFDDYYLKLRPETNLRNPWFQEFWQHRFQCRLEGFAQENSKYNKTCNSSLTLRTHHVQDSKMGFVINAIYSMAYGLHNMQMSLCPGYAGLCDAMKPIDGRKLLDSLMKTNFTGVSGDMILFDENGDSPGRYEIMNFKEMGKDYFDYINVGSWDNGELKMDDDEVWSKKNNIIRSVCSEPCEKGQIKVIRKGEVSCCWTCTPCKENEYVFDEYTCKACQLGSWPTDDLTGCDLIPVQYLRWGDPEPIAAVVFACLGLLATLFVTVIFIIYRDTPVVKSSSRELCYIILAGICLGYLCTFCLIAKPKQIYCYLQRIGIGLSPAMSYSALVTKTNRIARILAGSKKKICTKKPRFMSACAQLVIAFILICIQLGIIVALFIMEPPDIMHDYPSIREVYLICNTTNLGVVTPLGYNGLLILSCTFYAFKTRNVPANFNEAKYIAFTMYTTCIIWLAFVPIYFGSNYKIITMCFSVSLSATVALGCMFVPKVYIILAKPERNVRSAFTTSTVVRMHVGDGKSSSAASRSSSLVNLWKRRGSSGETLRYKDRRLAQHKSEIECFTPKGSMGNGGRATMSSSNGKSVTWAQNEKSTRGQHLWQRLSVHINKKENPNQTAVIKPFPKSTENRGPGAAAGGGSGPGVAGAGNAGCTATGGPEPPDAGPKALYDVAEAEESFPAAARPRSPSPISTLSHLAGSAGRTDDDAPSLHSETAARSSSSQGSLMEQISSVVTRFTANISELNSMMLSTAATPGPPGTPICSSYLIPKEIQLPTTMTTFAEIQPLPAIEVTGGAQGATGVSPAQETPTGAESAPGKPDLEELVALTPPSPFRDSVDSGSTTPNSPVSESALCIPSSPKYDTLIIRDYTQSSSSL

[4] = molecular target: 1-phosphatidylinositol 4,5-bisphosphate phosphodiesterase gamma-1 (Homo sapiens, UniProt P19174); assay: Counterscreen for inhibitors of phospholipase C isozymes (PLC-B3): Fluorescence-based biochemical high throughput dose response assay to identify inhibitors of phospholipase C isozymes (PLC-gamma1).
Chain of 1-phosphatidylinositol 4,5-bisphosphate phosphodiesterase gamma-1 (P19174 whole entry): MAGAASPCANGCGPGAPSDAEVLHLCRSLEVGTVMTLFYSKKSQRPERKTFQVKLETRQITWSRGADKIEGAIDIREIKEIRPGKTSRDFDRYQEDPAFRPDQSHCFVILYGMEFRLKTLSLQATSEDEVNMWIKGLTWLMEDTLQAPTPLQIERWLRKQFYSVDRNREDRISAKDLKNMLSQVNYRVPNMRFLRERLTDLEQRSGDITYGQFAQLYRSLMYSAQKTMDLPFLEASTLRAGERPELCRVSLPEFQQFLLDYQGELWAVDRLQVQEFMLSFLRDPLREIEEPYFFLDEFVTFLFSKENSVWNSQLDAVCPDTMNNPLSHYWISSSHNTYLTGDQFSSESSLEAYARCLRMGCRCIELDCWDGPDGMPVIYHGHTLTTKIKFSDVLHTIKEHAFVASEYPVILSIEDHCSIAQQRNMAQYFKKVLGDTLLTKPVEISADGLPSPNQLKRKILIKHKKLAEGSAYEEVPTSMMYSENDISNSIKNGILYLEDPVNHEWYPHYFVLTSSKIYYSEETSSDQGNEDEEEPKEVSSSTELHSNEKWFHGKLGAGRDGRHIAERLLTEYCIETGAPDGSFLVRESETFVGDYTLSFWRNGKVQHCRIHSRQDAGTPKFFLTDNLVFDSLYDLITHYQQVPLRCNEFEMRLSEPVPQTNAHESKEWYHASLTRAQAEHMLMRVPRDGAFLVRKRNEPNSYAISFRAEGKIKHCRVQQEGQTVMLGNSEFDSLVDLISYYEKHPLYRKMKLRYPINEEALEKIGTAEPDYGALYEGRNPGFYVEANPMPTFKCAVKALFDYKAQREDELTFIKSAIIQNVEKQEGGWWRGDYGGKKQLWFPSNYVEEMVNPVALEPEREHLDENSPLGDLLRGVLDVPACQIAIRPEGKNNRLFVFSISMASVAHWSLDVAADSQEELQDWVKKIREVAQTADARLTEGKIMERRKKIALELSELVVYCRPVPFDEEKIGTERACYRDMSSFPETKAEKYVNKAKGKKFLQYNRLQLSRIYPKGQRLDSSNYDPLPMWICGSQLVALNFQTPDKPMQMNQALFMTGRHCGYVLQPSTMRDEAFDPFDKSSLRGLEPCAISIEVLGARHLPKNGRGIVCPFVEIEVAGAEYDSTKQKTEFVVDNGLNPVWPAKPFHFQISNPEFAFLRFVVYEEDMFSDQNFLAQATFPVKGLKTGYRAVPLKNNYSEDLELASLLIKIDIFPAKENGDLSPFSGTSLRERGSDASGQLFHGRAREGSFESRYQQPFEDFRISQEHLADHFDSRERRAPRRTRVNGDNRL

[5] = molecular target: 1-phosphatidylinositol 4,5-bisphosphate phosphodiesterase beta-3 (Homo sapiens, UniProt Q01970); assay: Fluorescence-based biochemical high throughput dose response assay to identify inhibitors of phospholipase C isozymes (PLC-B3).
Chain of 1-phosphatidylinositol 4,5-bisphosphate phosphodiesterase beta-3 (Q01970 whole entry): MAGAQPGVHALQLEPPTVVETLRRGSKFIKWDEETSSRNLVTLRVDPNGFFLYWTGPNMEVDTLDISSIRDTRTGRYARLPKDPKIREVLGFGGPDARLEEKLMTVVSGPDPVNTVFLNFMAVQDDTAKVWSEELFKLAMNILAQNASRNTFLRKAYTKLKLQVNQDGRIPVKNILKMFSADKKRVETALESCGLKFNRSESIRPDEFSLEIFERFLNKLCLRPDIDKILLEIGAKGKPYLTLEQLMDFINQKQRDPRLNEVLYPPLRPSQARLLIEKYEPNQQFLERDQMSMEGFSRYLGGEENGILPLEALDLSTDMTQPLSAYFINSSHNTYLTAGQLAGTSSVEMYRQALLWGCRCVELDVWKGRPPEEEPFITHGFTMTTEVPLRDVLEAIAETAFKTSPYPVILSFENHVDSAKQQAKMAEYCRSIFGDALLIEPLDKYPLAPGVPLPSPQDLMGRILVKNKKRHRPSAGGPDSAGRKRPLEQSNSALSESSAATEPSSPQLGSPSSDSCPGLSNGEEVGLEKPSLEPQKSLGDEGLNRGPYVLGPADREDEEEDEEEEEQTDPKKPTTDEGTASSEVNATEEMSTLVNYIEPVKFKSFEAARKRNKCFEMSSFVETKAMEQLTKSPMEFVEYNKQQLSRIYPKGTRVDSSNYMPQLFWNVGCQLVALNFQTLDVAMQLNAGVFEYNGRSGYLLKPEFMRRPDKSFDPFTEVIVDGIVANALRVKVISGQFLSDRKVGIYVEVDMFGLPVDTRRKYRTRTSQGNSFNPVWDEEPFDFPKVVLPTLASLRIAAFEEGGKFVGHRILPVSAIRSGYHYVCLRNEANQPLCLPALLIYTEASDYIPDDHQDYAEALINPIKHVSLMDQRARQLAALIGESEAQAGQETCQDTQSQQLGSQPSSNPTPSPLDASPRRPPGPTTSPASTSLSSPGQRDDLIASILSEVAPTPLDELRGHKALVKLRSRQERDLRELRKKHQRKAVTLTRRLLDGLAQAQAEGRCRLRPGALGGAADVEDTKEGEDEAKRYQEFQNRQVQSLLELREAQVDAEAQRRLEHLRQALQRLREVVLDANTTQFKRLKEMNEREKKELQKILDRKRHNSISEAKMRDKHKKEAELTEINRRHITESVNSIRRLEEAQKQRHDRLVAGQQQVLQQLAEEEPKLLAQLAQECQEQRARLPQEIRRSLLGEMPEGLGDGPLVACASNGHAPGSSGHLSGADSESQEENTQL

Galanin receptor type 3 = Galanin receptor type 3 (Homo sapiens, UniProt O60755); assay: Fluorescence-based cell-based primary high throughput dose response assay to identify antagonists of the Galanin Receptor 3 (GalR3).; assay type: functional
Chain of Galanin receptor type 3 (O60755 whole entry): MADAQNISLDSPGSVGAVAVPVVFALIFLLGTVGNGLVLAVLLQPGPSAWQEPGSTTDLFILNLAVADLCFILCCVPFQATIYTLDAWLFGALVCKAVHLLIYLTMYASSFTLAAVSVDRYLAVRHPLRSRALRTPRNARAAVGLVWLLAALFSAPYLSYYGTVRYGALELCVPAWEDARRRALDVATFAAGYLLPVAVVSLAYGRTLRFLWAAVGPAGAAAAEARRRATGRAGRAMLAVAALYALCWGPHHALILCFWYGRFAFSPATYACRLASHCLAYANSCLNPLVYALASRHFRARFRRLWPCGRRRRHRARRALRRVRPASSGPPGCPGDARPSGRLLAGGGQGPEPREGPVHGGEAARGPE

cells = assay type: functional, cell-based; settings: HEK-CNG
[6] = MITF Orthogonal Assay: SK-MEL-5 CTG Assay Measured in Cell-Based System Using Plate Reader - 2084-02_Inhibitor_Dose_DryPowder_Activity_Set7.; assay type: functional
[7] = MITF: Counter assay: A375 proliferation Measured in Cell-Based System Using Plate Reader - 2084-03_Inhibitor_Dose_DryPowder_Activity_Set8.; assay type: functional; settings: A-375
[8] = inhibitors of TRPM1-promoter reporter in SK-MEL-5 – cell-based, luciferase, dry powder, set 8, MITF inhibitor project, dose response (AID 624430); assay type: functional
[9] = viability loss in HepG2 hepatoma cells – cell-based, cherry-picks, set 5, cytotoxicity control, dose response (AID 1053118); assay type: functional
[10] = molecular target: Endoplasmic reticulum aminopeptidase 1 (Homo sapiens, UniProt Q9NZ08); assay: inhibition of human ERAP1 enzyme activity – biochemical, cherry-pick, set 2, plate reader, dose response (AID 743314)
[11] = molecular target: T1, Aryl hydrocarbon receptor (Homo sapiens, UniProt P35869); settings: Potency;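 also: confirmatory quantitative high-throughput screen measuring activation of the AhR signaling pathway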
T1 sequence (P35869 whole entry): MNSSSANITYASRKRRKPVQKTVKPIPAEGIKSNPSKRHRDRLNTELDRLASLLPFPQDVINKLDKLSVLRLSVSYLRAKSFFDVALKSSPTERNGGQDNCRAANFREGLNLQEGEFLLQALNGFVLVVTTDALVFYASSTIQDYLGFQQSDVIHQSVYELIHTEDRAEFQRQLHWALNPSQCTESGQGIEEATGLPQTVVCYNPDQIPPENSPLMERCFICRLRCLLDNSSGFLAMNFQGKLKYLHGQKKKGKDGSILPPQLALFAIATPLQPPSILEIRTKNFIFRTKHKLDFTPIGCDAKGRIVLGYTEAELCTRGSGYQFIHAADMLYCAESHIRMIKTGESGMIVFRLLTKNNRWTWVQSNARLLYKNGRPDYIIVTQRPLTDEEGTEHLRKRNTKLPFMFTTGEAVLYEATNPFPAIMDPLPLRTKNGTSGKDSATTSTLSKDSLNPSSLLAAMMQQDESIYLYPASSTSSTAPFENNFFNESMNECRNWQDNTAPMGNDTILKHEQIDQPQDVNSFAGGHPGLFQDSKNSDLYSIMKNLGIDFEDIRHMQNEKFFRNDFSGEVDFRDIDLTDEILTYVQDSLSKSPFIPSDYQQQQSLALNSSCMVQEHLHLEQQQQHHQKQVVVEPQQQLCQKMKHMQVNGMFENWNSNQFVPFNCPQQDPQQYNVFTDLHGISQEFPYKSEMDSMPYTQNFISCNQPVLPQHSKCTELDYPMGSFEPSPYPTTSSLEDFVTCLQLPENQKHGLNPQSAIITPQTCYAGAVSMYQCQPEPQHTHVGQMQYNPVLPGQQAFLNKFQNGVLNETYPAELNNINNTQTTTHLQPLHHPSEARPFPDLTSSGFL

Vero = assay: viability loss in Vero cells – cell-based, plate reader, cherry-pick samples, cytotoxicity control, dose response (AID 687020); assay type: functional; settings: Chlorocebus sabaeus
[12] = Fluorescence-based cell-based high throughput dose response assay for inhibitors of the interaction of nucleotide-binding oligomerization domain containing 2 (NOD2) and the receptor-interacting serine-threonine kinase 2 (RIPK2).; assay type: functional; settings: Homo sapiens

Chain of Beta-lactamase (Pseudomonas aeruginosa, UniProt Q79MP6) (Q79MP6 whole entry): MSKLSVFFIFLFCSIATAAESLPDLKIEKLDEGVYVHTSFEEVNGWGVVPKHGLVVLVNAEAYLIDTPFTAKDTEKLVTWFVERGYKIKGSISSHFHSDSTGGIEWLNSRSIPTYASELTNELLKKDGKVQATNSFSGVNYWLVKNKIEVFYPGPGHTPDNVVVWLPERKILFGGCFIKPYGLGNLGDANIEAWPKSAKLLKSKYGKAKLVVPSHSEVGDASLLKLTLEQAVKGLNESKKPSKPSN

In the case of O=C(Nc1ccc(C(F)(F)F)cc1)c1ccc(NC(=O)C2CCCO2)cc1 (stereo not given), the IC50 (Beta-lactamase [1]) is reported as 47.5 µM (inactive) and the IC50 (Beta-lactamase [2]) is reported as > 59.6 µM (inactive).
CCS(=O)(=O)N1c2ccccc2CC[C@H]1C(=O)Nc1cccc(Cl)c1 showed an EC50 [3] of 1.74 µM.
With CN(C(=O)c1ccccc1)C1c2c(ccc3ccccc23)OCC1CO (stereo not given) the IC50 [4] was > 122 µM (inactive) and the IC50 [5] was > 122 µM (inactive).
With C[C@H]1C[C@H]2[C@@H]3CCC4=CC(=O)C=C[C@]4(C)[C@@]3(F)[C@@H](O)C[C@]2(C)[C@@]1(O)C(=O)CO [BETAMETHASONE] the IC50 (Galanin receptor type 3) was > 29.9 µM (inactive) and the EC50 (cells) was > 29.9 µM (inactive).
In the case of CCN1CCN(C2=C(Nc3cccc(Br)c3)C(=O)c3ccccc3C2=O)CC1, the AC50 [6] is reported as 8.08 µM (active), the AC50 [7] is reported as 26.2 µM (active) and the AC50 [8] is reported as 3.45 µM (active).
For COCC(=O)Nc1ccc2c(c1)C(=O)N(C)[C@H]1CC[C@@H](CC(=O)NCc3ccccc3Cl)O[C@@H]1CO2, the AC50 [9] was > 52 µM (inactive).
For COc1ccc2c3c([nH]c2c1)[C@@H](CO)N(Cc1ccccc1OC)CC31CN(C)C1, the AC50 [10] was 15.8 µM (active).
With CNc1cnn(-c2cccc(C(F)(F)F)c2)c(=O)c1Cl [NORFLURAZONE] the AC50 [11] was 31.6 µM (inconclusive).
With Cc1cccc(OC(C)C(=O)Nc2nc(-c3ccncc3)cs2)c1 (stereo not given) the AC50 (Vero) was 35.8 µM (active).
In the case of C=CCOc1ccccc1C(=O)/C=C1/C(=O)Nc2ccccc21, the IC50 [12] is reported as 3.58 µM (active).
